The source made the active and inactive calls. No rule for the calls is given here.
System: rodent carcinogenicity bioassays, tumor incidence
Experiment: CCRIS carcinogenicity studies
Summary of the method: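 Archive of carcinogenicity, mutagenicity, tumor promotion and tumor inhibition results drawn from journals, NCI reports and other sources, expert-reviewed; covers 1985-2011 and is no longer updated.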

`[O]=[Cd]` was tested, and the carcinogen call (Species: HAMSTER, Strain/Sex: SYRIAN/MALE, Route: INHALATION, Dose: 0, 10 UG/M3 19 HR/D 5 D/WK FOR 65 WK FOR A TOTAL CADMIUM DOSE OF 0, 63 MG/M3 (STUDY DURATION: 113 WK), Dose: 0, 10 UG/M3 19 HR/D 5 D/WK FOR 65 WK FOR A TOTAL CADMIUM DOSE OF 0, 63 MG/M3 (STUDY DURATION: 113 WK)) was “inactive; negative”, the carcinogen call (Species: HAMSTER, Strain/Sex: SYRIAN/MALE, Route: INHALATION, Dose: 0, 90 UG/M3 8 HR/D 5 D/WK FOR 65 WK FOR A TOTAL CADMIUM DOSE OF 0, 216 MG/M3 (STUDY DURATION: 113 WK), Dose: 0, 90 UG/M3 8 HR/D 5 D/WK FOR 65 WK FOR A TOTAL CADMIUM DOSE OF 0, 216 MG/M3 (STUDY DURATION: 113 WK)) was “inactive; negative” and the carcinogen call (Species: HAMSTER, Strain/Sex: SYRIAN/MALE, Route: INHALATION, Dose: 0, 270 UG/M3 8 HR/D 5 D/WK FOR 53 WK FOR A TOTAL CADMIUM DOSE OF 0, 522 MG/M3 (STUDY DURATION: 70 WK), Dose: 0, 270 UG/M3 8 HR/D 5 D/WK FOR 53 WK FOR A TOTAL CADMIUM DOSE OF 0, 522 MG/M3 (STUDY DURATION: 70 WK)) was “inactive; negative”. The carcinogen call (Species: RAT, Strain/Sex: FEMALE, Route: SUBCUTANEOUS, Dose: 25 MG ONCE, Tumor Site: Type of Lesion: INJECTION SITE: SARCOMA) was “active; positive”, the carcinogen call (Species: RAT, Strain/Sex: FEMALE, Route: SUBCUTANEOUS, Dose: 25 MG, SINGLE DOSE, Tumor Site: Type of Lesion: INJECTION SITE) was “active; positive” and the carcinogen call (Species: RAT, Strain/Sex: WISTAR/FEMALE, Route: INHALATION, Dose: 0, 30 UG/M3 8 HR/D,5D/WK FOR 18 MO (STUDY DURATION: 18 MO)) was “inactive; negative”. For the same molecule, the carcinogen call (Species: RAT, Strain/Sex: WISTAR/FEMALE, Route: INHALATION, Dose: 0, 30 UG/M3 CADMIUM OXIDE DUST 22 HR/D 7 D/WK FOR 18 MO (STUDY DURATION: 31 MO), Tumor Site: Type of Lesion: LUNG: TUMOR) was “active; positive”, the carcinogen call (Species: RAT, Strain/Sex: WISTAR/FEMALE, Route: INHALATION, Dose: 0, 30 UG/M3 DUST 22 HR/D 7 D/WK FOR 18 MO (STUDY DURATION: 31 MO), Tumor Site: Type of Lesion: LUNG: ALVEOLAR/BRONCHIOLAR ADENOMA, ADENOCARCINOMA, SQUAMOUS CELL CARCINOMA) was “active; positive” and the carcinogen call (Species: RAT, Strain/Sex: WISTAR/FEMALE, Route: INHALATION, Dose: 0, 30 UG/M3 OF CADMIUM OXIDE DUST 22 HR/D 7 D/WK FOR 18 MO (STUDY DURATION: 31 MO), Tumor Site: Type of Lesion: LUNG: ALVEOLAR/BRONCHIOLAR ADENOMA, ADENOCARCINOMA, SQUAMOUS CELL CARCINOMA) was “active; positive”. The carcinogen call (Species: RAT, Strain/Sex: WISTAR/FEMALE, Route: INHALATION, Dose: 0, 90 UG/M3 CADMIUM OXIDE DUST 22 HR/D 7 D/WK FOR 4 MO (STUDY DURATION: 31 MO), Tumor Site: Type of Lesion: LUNG: TUMOR) was “active; positive”, the carcinogen call (Species: RAT, Strain/Sex: WISTAR/FEMALE, Route: INHALATION, Dose: 0, 90 UG/M3 CADMIUM OXIDE DUST DISCONTINOUS EXPOSURE FOR 40 HR/WK FOR 6 MO (STUDY DURATION: 31 MO), Tumor Site: Type of Lesion: LUNG: TUMOR) was “active; positive” and the carcinogen call (Species: RAT, Strain/Sex: WISTAR/FEMALE, Route: INHALATION, Dose: 0, 90 UG/M3 DUST 8 HR/D 5 D/WK FOR 6 MO (STUDY DURATION: 31 MO), Tumor Site: Type of Lesion: LUNG: ADENOCARCINOMA, SQUAMOUS CELL CARCINOMA) was “active; positive”. For the same molecule, the carcinogen call (Species: RAT, Strain/Sex: WISTAR/FEMALE, Route: INHALATION, Dose: 0, 90 UG/M3 DUST 22 HR/D 7 D/WK FOR 11 MO (STUDY DURATION: 31 MO), Tumor Site: Type of Lesion: LUNG: ALVEOLAR/BRONCHIOLAR ADENOMA, ADENOCARCINOMA, SQUAMOUS CELL CARCINOMA) was “active; positive”, the carcinogen call (Species: RAT, Strain/Sex: WISTAR/FEMALE, Route: INHALATION, Dose: 0, 90 UG/M3 OF CADMIUM OXIDE DUST 22 HR/D 7 D/WK FOR 11 MO (STUDY DURATION: 31 MO), Tumor Site: Type of Lesion: LUNG: ALVEOLAR/BRONCHIOLAR ADENOMA, ADENOCARCINOMA, SQUAMOUS CELL CARCINOMA) was “active; positive” and the carcinogen call (Species: RAT, Strain/Sex: WISTAR/FEMALE, Route: INHALATION, Dose: 0, 90 UG/M3 OF CADMIUM OXIDE DUST 40 HR/WK FOR 6 MO (STUDY DURATION: 31 MO)) was “inactive; negative”. For the same molecule, the carcinogen call (Species: RAT, Strain/Sex: WISTAR/MALE, Route: INHALATION, Dose: 0, 10 UG/M3 CADMIUM OXIDE FUME 22 HR/D 7 D/WK FOR 18 MO (STUDY DURATION: 31 MO)) was “inactive; negative”, the carcinogen call (Species: RAT, Strain/Sex: WISTAR/MALE, Route: INHALATION, Dose: 0, 10 UG/M3 FUME 22 HR/D 7 D/WK FOR 18 MO (STUDY DURATION: 31 MO)) was “inactive; negative” and the carcinogen call (Species: RAT, Strain/Sex: WISTAR/MALE, Route: INHALATION, Dose: 0, 10 UG/M3 OF CADMIUM OXIDE FUME 22 HR/D 7 D/WK FOR 18 MO (STUDY DURATION: 31 MO)) was “inactive; negative”. For the same molecule, the carcinogen call (Species: RAT, Strain/Sex: WISTAR/MALE, Route: INHALATION, Dose: 0, 30 UG/M3 CADMIUM OXIDE DUST 22 HR/D 7 D/WK FOR 18 MO (STUDY DURATION: 31 MO), Tumor Site: Type of Lesion: LUNG: ADENOMA OR ADENOCARCINOMA OR SQUAMOUS CELL TUMOR OR ADENOSQUAMOUS CARCINOMA) was “active; positive”, the carcinogen call (Species: RAT, Strain/Sex: WISTAR/MALE, Route: INHALATION, Dose: 0, 30 UG/M3 CADMIUM OXIDE DUST 22 HR/D 7 D/WK FOR 18 MO (STUDY DURATION: 31 MO), Tumor Site: Type of Lesion: LUNG: TUMOR) was “active; positive” and the carcinogen call (Species: RAT, Strain/Sex: WISTAR/MALE, Route: INHALATION, Dose: 0, 30 UG/M3 CADMIUM OXIDE DUST 22 HR/D 7 D/WK FOR 18 MO ADMINISTERED TO RATS MAINTAINED ON ZINC REDUCED (24 PPM) DIET (S, Tumor Site: Type of Lesion: LUNG: TUMOR) was “active; positive”. The carcinogen call (Species: RAT, Strain/Sex: WISTAR/MALE, Route: INHALATION, Dose: 0, 30 UG/M3 CADMIUM OXIDE FUME 22 HR/D 7 D/WK FOR 18 MO (STUDY DURATION: 31 MO), Tumor Site: Type of Lesion: LUNG: TUMOR) was “active; positive”, the carcinogen call (Species: RAT, Strain/Sex: WISTAR/MALE, Route: INHALATION, Dose: 0, 30 UG/M3 DUST 22 HR/D 7 D/WK FOR 18 MO (STUDY DURATION: 31 MO), Tumor Site: Type of Lesion: LUNG: ALVEOLAR/BRONCHIOLAR ADENOMA, ADENOCARCINOMA, SQUAMOUS CELL CARCINOMA) was “active; positive” and the carcinogen call (Species: RAT, Strain/Sex: WISTAR/MALE, Route: INHALATION, Dose: 0, 30 UG/M3 DUST 22 HR/D 7 D/WK FOR 18 MO MAINTAINED ON ZN REDUCED DIET (24 PPM) FOR STUDY DURATION (STUDY DURATION: 29, Tumor Site: Type of Lesion: LUNG: ALVEOLAR/BRONCHIOLAR ADENOMA, ADENOCARCINOMA, SQUAMOUS CELL CARCINOMA) was “active; positive”. The carcinogen call (Species: RAT, Strain/Sex: WISTAR/MALE, Route: INHALATION, Dose: 0, 30 UG/M3 FUME 22 HR/D 7 D/WK FOR 18 MO (STUDY DURATION: 31 MO), Tumor Site: Type of Lesion: LUNG: ALVEOLAR/BRONCHIOLAR ADENOMA, ADENOCARCINOMA) was “active; positive”, the carcinogen call (Species: RAT, Strain/Sex: WISTAR/MALE, Route: INHALATION, Dose: 0, 30 UG/M3 OF CADMIUM OXIDE DUST 22 HR/D 7 D/WK FOR 18 MO (STUDY DURATION: 29 MO), Tumor Site: Type of Lesion: LUNG: ALVEOLAR/BRONCHIOLAR ADENOMA, ADENOCARCINOMA) was “active; positive” and the carcinogen call (Species: RAT, Strain/Sex: WISTAR/MALE, Route: INHALATION, Dose: 0, 30 UG/M3 OF CADMIUM OXIDE DUST 22 HR/D 7 D/WK FOR 18 MO (STUDY DURATION: 31 MO), Tumor Site: Type of Lesion: LUNG: ALVEOLAR/BRONCHIOLAR ADENOMA, ADENOCARCINOMA, SQUAMOUS CELL CARCINOMA) was “active; positive”. For the same molecule, the carcinogen call (Species: RAT, Strain/Sex: WISTAR/MALE, Route: INHALATION, Dose: 0, 30 UG/M3 OF CADMIUM OXIDE FUME 22 HR/D 7 D/WK FOR 18 MO (STUDY DURATION: 31 MO)) was “inactive; negative”, the carcinogen call (Species: RAT, Strain/Sex: WISTAR/MALE, Route: INHALATION, Dose: 0, 90 UG/M3, 8 HR/D, 5D/WK FOR 7.1 MO (STUDY DURATION: 7.1 MO)) was “inactive; negative” and the carcinogen call (Species: RAT, Strain/Sex: WISTAR/MALE, Route: INHALATION, Dose: 0, 90 UG/M3 CADMIUM OXIDE DUST 22 HR/D 7 D/WK FOR 7 MO (STUDY DURATION: 31 MO), Tumor Site: Type of Lesion: LUNG: ADENOMA OR ADENOCARCINOMA OR SQUAMOUS CELL TUMOR) was “active; positive”. The carcinogen call (Species: RAT, Strain/Sex: WISTAR/MALE, Route: INHALATION, Dose: 0, 90 UG/M3 CADMIUM OXIDE DUST 22 HR/D 7 D/WK FOR 7 MO (STUDY DURATION: 31 MO), Tumor Site: Type of Lesion: LUNG: TUMOR) was “active; positive”, the carcinogen call (Species: RAT, Strain/Sex: WISTAR/MALE, Route: INHALATION, Dose: 0, 90 UG/M3 CADMIUM OXIDE DUST DISCONTINOUS EXPOSURE FOR 40 HR/WK FOR 6 MO (STUDY DURATION: 31 MO), Tumor Site: Type of Lesion: LUNG: TUMOR) was “active; positive” and the carcinogen call (Species: RAT, Strain/Sex: WISTAR/MALE, Route: INHALATION, Dose: 0, 90 UG/M3 DUST 8 HR/D 5 D/WK FOR 6 MO (STUDY DURATION: 31 MO), Tumor Site: Type of Lesion: LUNG: ALVEOLAR/BRONCHIOLAR ADENOMA, ADENOCARCINOMA, SQUAMOUS CELL CARCINOMA) was “active; positive”. For the same molecule, the carcinogen call (Species: RAT, Strain/Sex: WISTAR/MALE, Route: INHALATION, Dose: 0, 90 UG/M3 DUST 22 HR/D 7 D/WK FOR 7 MO (STUDY DURATION: 31 MO), Tumor Site: Type of Lesion: LUNG: ALVEOLAR/BRONCHIOLAR ADENOMA, ADENOCARCINOMA) was “active; positive”, the carcinogen call (Species: RAT, Strain/Sex: WISTAR/MALE, Route: INHALATION, Dose: 0, 90 UG/M3 OF CADMIUM OXIDE DUST 22 HR/D 7 D/WK FOR 7 MO (STUDY DURATION: 31 MO), Tumor Site: Type of Lesion: LUNG: ALVEOLAR/BRONCHIOLAR ADENOMA, ADENOCARCINOMA) was “active; positive” and the carcinogen call (Species: RAT, Strain/Sex: WISTAR/MALE, Route: INHALATION, Dose: 0, 90 UG/M3 OF CADMIUM OXIDE DUST 40 HR/WK FOR 6 MO (STUDY DURATION: 31 MO)) was “inactive; negative”.
